Results on 17 compounds are retold here after patent US7064204B2, “Pharmaceutically active compounds having a tricyclic pyrazolotriazolopyrimidine ring structure and methods of use” (King Pharmacueticals Reserch and Development, Inc., priority 2002, dated 2006).

pKi: −log10 of the molar value. Structures can show the parent of a compound that is named as a salt.

In experiment [1] the target is T1, human A2A adenosine receptors (Homo sapiens, UniProt P29274).
T1 construct: expressed in transfected cells; host or cells: CHO cells
As to the kind of experiment: Displacement of [3H]SCH58261 binding at human A2A adenosine receptors expressed in CHO cells. To be noted: for pKi: CHO cells; for affinity for A2A adenosine receptor subtype: discussion of Tables 2 and 3.

In experiment [2] the target is T2, human A3 adenosine receptors (Homo sapiens, UniProt P0DMS8).
T2 sequence (P0DMS8 1-318): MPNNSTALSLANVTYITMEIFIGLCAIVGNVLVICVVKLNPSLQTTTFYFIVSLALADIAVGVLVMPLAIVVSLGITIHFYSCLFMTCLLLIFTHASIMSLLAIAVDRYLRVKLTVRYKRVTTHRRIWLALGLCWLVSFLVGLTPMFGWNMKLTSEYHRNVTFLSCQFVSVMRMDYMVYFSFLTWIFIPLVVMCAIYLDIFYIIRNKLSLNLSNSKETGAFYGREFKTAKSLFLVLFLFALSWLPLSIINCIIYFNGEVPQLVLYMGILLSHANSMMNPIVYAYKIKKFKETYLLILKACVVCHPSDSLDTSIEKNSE
Briefly: Displacement of [3H]MRE 3008F20 binding at human A3 adenosine receptors expressed in CHO cells. More on the design: expressed in transfected cells; host or cells: CHO cells. To be noted: for affinity for / interaction with A3 adenosine receptor subtype: in words, discussion of Tables 2 and 3.

For experiment [3], the target named is T3, human A1 adenosine receptors (Homo sapiens, UniProt P30542).
T3 construct: expressed in transfected cells; host or cells: CHO cells
T3 sequence (P30542 1-326): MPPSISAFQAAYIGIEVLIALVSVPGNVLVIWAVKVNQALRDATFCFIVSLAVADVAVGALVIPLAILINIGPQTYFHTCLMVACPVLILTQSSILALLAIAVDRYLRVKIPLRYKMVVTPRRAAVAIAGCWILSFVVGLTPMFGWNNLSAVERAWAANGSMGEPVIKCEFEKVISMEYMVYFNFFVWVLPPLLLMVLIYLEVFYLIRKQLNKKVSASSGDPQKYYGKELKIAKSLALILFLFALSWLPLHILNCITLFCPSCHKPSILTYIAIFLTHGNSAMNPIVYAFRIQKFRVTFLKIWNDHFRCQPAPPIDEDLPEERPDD
Briefly: Displacement of [3H]DPCPX binding at human A1 adenosine receptors expressed in CHO cells.

Experiment [4] deals with T4, human A2B adenosine receptors (Homo sapiens, UniProt P29275).
T4 construct: expressed in transfected cells; host or cells: HEK-293 cells
T4 sequence (P29275 1-332): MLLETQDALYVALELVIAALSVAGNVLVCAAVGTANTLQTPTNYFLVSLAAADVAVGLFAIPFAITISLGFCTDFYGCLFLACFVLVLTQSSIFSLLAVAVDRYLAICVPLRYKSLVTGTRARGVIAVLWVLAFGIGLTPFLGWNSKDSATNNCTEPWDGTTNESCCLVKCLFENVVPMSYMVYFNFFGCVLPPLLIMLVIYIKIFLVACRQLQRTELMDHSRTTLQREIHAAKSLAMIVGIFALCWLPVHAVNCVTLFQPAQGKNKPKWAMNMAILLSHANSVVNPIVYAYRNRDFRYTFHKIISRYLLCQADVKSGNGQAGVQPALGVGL
As to the kind of experiment: Displacement of [3H]DPCPX binding at human A2B adenosine receptors expressed in HEK-293 cells.

Setting [5] is: Table 3: [3H]SCH58261, human A2A.
The mark [6] stands for this setting: Table 3: [3H]MRE 3008F20, human A3, CHO cells.
Where [7] appears, read: Table 3: [3H]DPCPX, human A1, CHO cells.
Where [8] appears, read: Table 3: [3H]DPCPX, HEK-293 cells.
[9] abbreviates: Table 2, footnote b: [3H]SCH58261, human A2A.
Setting [10] is: Table 2, footnote b: [3H]MRE 3008F20, human A3, CHO cells.
The mark [11] stands for this setting: Table 2, footnote b: [3H]DPCPX, human A1.

T1 sequence (P29274 whole entry): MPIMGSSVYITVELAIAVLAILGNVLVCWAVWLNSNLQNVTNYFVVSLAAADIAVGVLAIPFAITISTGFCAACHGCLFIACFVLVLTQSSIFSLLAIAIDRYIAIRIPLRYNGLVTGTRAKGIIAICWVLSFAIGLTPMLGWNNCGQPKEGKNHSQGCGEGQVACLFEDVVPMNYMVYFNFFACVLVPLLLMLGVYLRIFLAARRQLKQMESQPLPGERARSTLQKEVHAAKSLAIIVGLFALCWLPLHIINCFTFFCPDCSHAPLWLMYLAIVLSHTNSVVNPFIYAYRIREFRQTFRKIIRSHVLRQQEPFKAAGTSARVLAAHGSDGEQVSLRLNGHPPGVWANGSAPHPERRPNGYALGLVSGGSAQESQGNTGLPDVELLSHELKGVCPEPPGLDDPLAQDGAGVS

Regarding `CSc1c2c(nc(N)n3nc(-c4ccco4)nc23)nn1C` [Compound 41, 2-Furan-2-yl-8-methyl-9-methylsulfanyl-8H-pyrazolo[4,3-e][1,2,4]triazolo[1,5-c]pyrimidin-5-ylamine], the negative-log Ki (pKi) was 8.92 in experiment [1] (setting [5]), 7.46 in experiment [2] (setting [6]), 8.08 in experiment [3] (setting [7]) and 7.99 in experiment [4] (setting [8]). In experiment [1] (in words), the “selectivity for A2A versus the other adenosine receptor subtypes” value is given as “low selectivity”. For the same compound, in experiment [1] (in words), the “affinity for A2A adenosine receptor subtype” value is given as “good affinity”.

In the case of `COc1ccc(Nc2c3c(nc(N)n4nc(-c5ccco5)nc34)nn2C)cc1` [Compound 39, 2-Furan-2-yl-N9-(4-methoxy-phenyl)-8-methyl-8H-pyrazolo[4,3-e][1,2,4]triazolo[1,5-c]pyrimidine-5,9-diamine], the “affinity for A2A adenosine receptor subtype” value in experiment [1] (in words) is “useless”. In experiment [3] (setting [7]), this compound gave a pKi of 6.59.

For the compound `CCNc1c2c(nc(N)n3nc(-c4ccco4)nc23)nn1C` [Compound 53, N9-Ethyl-2-furan-2-yl-8-methyl-8H-pyrazolo[4,3-e][1,2,4]triazolo[1,5-c]pyrimidine-5,9-diamine hydrochloride salt], the negative logarithm of the Ki (pKi) in experiment [2] (Table 3: [3H]MRE 3008F20, human A3, CHO cells, hydrochloride salt) is 7.60; in experiment [3] (Table 3: [3H]DPCPX, human A1, CHO cells, hydrochloride salt), 7.39; in experiment [4] (Table 3: [3H]DPCPX, HEK-293 cells, hydrochloride salt) it was 7.44.

For the compound `CSc1c2c(nc(N)n3nc(-c4ccco4)nc23)nn1CCCc1ccccc1` [Compound 43, 2-Furan-2-yl-9-methylsulfanyl-8-(3-phenyl-propyl)-8H-pyrazolo[4,3-e][1,2,4]triazolo[1,5-c]pyrimidin-5-ylamine], the values for the negative-log Ki (pKi) in experiment [1] (setting [5]), in experiment [3] (setting [7]) and in experiment [4] (setting [8]) were 7.66, 6.76 and 7.51, respectively. Besides, in experiment [1] (in words), the “affinity for A2A adenosine receptor subtype” value is “decrease of A2A interaction”.

Regarding `COc1ccc(NC(=O)Nc2nc3nn(C)c(N4CCN(C)CC4)c3c3nc(-c4ccco4)nn23)cc1` [Compound 45, 1-[2-Furan-2-yl-8-methyl-9-(4-methyl-piperazin-1-yl)-8H-pyrazolo[4,3-e][1,2,4]triazolo[1,5-c]pyrimidin-5-yl]-3-(4-methoxy-phenyl)-urea], the pKi in experiment [3] (setting [7]) was 6.50; in experiment [4] (setting [8]), 7.59.

In the case of `Nc1nc2c(cnn2CCc2ccccc2)c2nc(-c3ccc(OCC(=O)O)cc3)nn12` [Compound 7, [4-(5-Amino-7-phenethyl-7H-pyrazolo[4,3-e][1,2,4]triazolo[1,5-c]pyrimidin-2-yl)-phenoxy]-acetic acid], the pKi in experiment [1] (setting [9]) is under 6.00; in experiment [2] (setting [10]), under 6.00; in experiment [3] (setting [11]) it was under 6.00; in experiment [4] (Table 2, footnote b: [3H]DPCPX) it was under 6.00.

Turning to `CCNc1c2c(nc(N)n3nc(-c4ccco4)nc23)nn1C` [Compound 38, N9-Ethyl-2-furan-2-yl-8-methyl-8H-pyrazolo[4,3-e][1,2,4]triazolo[1,5-c]pyrimidiine-5,9-diamine], in experiment [1] (in words), the “affinity for A2A adenosine receptor subtype” value is given as “good affinity”. The negative-log Ki (pKi) is 6.65 in experiment [2] (setting [6]), 7.30 in experiment [3] (setting [7]) and 7.09 in experiment [4] (setting [8]).

On to `CSc1c2c(nc(NC(=O)Cc3ccc(CC(C)C)cc3)n3nc(-c4ccco4)nc23)nn1C` [Compound 48, N-(2-Furan-2-yl-8-methyl-9-methylsulfanyl-8H-pyrazolo[4,3-e][1,2,4]triazolo[1,5-c]pyrimidin-5-yl)-2-(4-isobutyl-phenyl)-acetamide], for which the results for the negative-log Ki (pKi) in experiment [1] (setting [5]), in experiment [3] (setting [7]) and in experiment [4] (setting [8]) were 7.30, 6.11 and 6.72, respectively. For the same compound, the “affinity for A2A adenosine receptor subtype” value in experiment [1] (in words) is “maintains A2A affinity”. Moreover, the “affinity for / interaction with A3 adenosine receptor subtype” value (shortened to “affinity for / interaction”) in experiment [2] is “decreased”.

For `CCNc1c2c(nc(NC(=O)Nc3ccc(OC)cc3)n3nc(-c4ccco4)nc23)nn1C` [Compound 44, 1-(9-Ethylamino-2-furan-2-yl-8-methyl-8H-pyrazolo[4,3-e][1,2,4]triazolo[1,5-c]pyrimidin-5-yl)-3-(4-methoxy-phenyl)-urea], in experiment [1] (in words), the “affinity for A2A adenosine receptor subtype” value was “decrease of A2A affinity”. Also, the negative logarithm of the Ki (pKi) is 7.77 in experiment [2] (setting [6]), 6.82 in experiment [3] (setting [7]) and 7.43 in experiment [4] (setting [8]). The “affinity for / interaction” value in experiment [2] is reported as “good increase in A3 affinity”.

Consider `CN1CCN(c2c3c(nc(N)n4nc(-c5ccco5)nc34)nn2C)CC1` [Compound 40, 2-Furan-2-yl-8-methyl-9-(4-methyl-piperazin-1-yl)-8H-pyrazolo[4,3-e][1,2,4]triazolo[1,5-c]pyrimidin-5-ylamine], for which the negative logarithm of the Ki (pKi) is 6.81 in experiment [1] (setting [5]), 7.52 in experiment [3] (setting [7]) and 7.46 in experiment [4] (setting [8]). For the same compound, in experiment [1] (in words), the “affinity for A2A adenosine receptor subtype” value is “useless”.

Regarding `CSc1c2c(nc(NC(=O)Cc3ccc4c(c3)OCO4)n3nc(-c4ccco4)nc23)nn1C` [Compound 49, 2-Benzo[1,3]dioxol-5-yl-N-(2-furan-2-yl-8-methyl-9-methylsulfanyl-8H-pyrazolo[4,3-e][1,2,4]triazolo[1,5-c]pyrimidin-5-yl)-acetamide], the negative-log Ki (pKi) in experiment [1] (setting [5]) was 8.39; in experiment [2] (setting [6]), 6.96; in experiment [3] (setting [7]) it was 7.15; in experiment [4] (setting [8]), 7.52. The “affinity for / interaction” value in experiment [2] is given as “decreased”.

`COc1ccc(NC(=O)Nc2nc3nn(C)c(SC)c3c3nc(-c4ccco4)nn23)cc1` [Compound 46, 1-(2-Furan-2-yl-8-methyl-9-methylsulfanyl-8H-pyrazolo[4,3-e][1,2,4]triazolo[1,5-c]pyrimidin-5-yl)-3-(4-methoxy-phenyl)-urea]: the pKi is 8.51 in experiment [1] (setting [5]), 6.67 in experiment [2] (setting [6]), 7.15 in experiment [3] (setting [7]) and 7.62 in experiment [4] (setting [8]). In addition, the “affinity for / interaction” value in experiment [2] is recorded as “decreased”.

Take `CN1CCN(c2c3c(nc(N)n4nc(-c5ccco5)nc34)nn2C)CC1` [Compound 54, 2-Furan-2-yl-8-methyl-9-(4-methyl-piperazin-1-yl)-8H-pyrazolo[4,3-e][1,2,4]triazolo[1,5-c]pyrimidin-5-ylamine dihydrochloride salt]: the negative-log Ki (pKi) is 6.87 in experiment [1] (Table 3: [3H]SCH58261, human A2A, dihydrochloride salt); 7.32 in experiment [3] (Table 3: [3H]DPCPX, human A1, CHO cells, dihydrochloride salt); 7.92 in experiment [4] (Table 3: [3H]DPCPX, HEK-293 cells, dihydrochloride salt).

Consider `Nc1nc2c(cnn2CCc2ccccc2)c2nc(-c3ccc(OCC(=O)Nc4ccc(I)cc4)cc3)nn12` [Compound 8, 2-[4-(5-Amino-7-phenethyl-7H-pyrazolo[4,3-e][1,2,4]triazolo[1,5-c]pyrimidin-2-yl)-phenoxy]-N-(4-iodo-phenyl)-acetamide], for which the pKi in experiment [1] (setting [9]) was under 6.00; in experiment [2] (setting [10]), under 6.00; in experiment [3] (setting [11]) it was under 6.00; in experiment [4] (Table 2, footnote b: [3H]DPCPX) it was under 6.00.

Take `CCNc1c2c(nc(NC(=O)Cc3ccc4c(c3)OCO4)n3nc(-c4ccco4)nc23)nn1C` [Compound 50, 2-Benzo[1,3]dioxol-5-yl-N-(9-ethylamino-2-furan-2-yl-8-methyl-8H-pyrazolo[4,3-e][1,2,4]triazolo[1,5-c]pyrimidin-5-yl)-acetamide]: the negative logarithm of the Ki (pKi) in experiment [1] (setting [5]) is 7.21; in experiment [2] (setting [6]), 6.74; in experiment [3] (setting [7]) it was 6.87; in experiment [4] (setting [8]), 7.19.

With `COc1ccc(CC(=O)Nc2nc3nn(C)c(SC)c3c3nc(-c4ccco4)nn23)cc1` [Compound 47, N-(2-Furan-2-yl-8-methyl-9-methylsulfanyl-8H-pyrazolo[4,3-e][1,2,4]triazolo[1,5-c]pyrimidin-5-yl)-2-(4-methoxy-phenyl)-acetamide], the pKi in experiment [1] (setting [5]) is 7.82; in experiment [3] (setting [7]), 7.10; in experiment [4] (setting [8]) it was 7.35. The “affinity for A2A adenosine receptor subtype” value in experiment [1] (in words) is “maintains A2A affinity”. For the same compound, the “affinity for / interaction” value in experiment [2] was “decreased”.

As to `Cn1nc2nc(N)n3nc(-c4ccco4)nc3c2c1Nc1ccc(O)cc1` [Compound 52, 4-(5-Amino-2-furan-2-yl-8-methyl-8H-pyrazolo[4,3-e][1,2,4]triazolo[1,5-c]pyrimidin-9-ylamino)-phenol], in experiment [1] (in words), the “affinity for A2A adenosine receptor subtype” value was “useless”. Besides, the negative-log Ki (pKi) in experiment [2] (setting [6]) is 6.51; in experiment [3] (setting [7]), 6.18.
